Measurements taken from US11525155B2, “Stabilisation of biological samples” (QIAGEN GmbH, priority 2013, dated 2022).
Non-standard residues stand in square brackets, D forms with d. *: point of attachment. Nle = CCCC[C@H](N)C(=O)O; Cbz = O=C(OCc1ccccc1)*; CH2F = FC*

Experiments:
[1] = biological target: T1, caspase-3 (Homo sapiens, UniProt P42574); settings: cited from earlier work
T1 sequence (P42574 29-175 limits assumed): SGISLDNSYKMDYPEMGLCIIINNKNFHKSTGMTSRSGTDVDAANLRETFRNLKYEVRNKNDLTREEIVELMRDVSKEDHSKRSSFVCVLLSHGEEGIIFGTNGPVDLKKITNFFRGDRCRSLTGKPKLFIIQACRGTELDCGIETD
T1 sequence (P42574 176-277 limits assumed): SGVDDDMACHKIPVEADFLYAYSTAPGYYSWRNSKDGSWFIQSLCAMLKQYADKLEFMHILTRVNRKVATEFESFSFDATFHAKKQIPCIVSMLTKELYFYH

[2] = biological target: T2, caspase-7 (Homo sapiens, UniProt P55210); settings: cited from earlier work
T2 sequence (P55210 24-198 limits assumed): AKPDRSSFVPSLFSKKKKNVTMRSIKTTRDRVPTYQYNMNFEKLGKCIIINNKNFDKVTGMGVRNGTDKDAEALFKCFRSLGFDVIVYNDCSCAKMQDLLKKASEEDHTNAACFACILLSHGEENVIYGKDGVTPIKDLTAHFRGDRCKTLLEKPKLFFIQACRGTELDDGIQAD
T2 sequence (P55210 207-303 limits assumed): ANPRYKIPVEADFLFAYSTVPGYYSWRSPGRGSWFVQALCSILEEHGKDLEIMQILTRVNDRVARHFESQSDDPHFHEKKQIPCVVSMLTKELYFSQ

[3] = tested on: transcripts of FOS, IL1B, IL8 and TP53; test: Transcript level stabilisation in blood samples, real time RT-PCR monoplex assays; format: cell-based; settings: EDTA blood, 2% (w/v) N-methylacetamide, one and three days at RT
[4] = tested on: 18S ribosomal DNA; test: Stabilization of extracellular nucleic acid population in whole blood, 18S rDNA qPCR (66 bp and 500 bp amplicon); format: cell-based, human; settings: 7.2 mg/ml K2 EDTA, 3 and 6 days RT
Method: Blood obtained from donors was collected into 10 ml K2 EDTA tubes (BD). 4.5 ml of the respectively collected blood was mixed with 0.9 ml of different stabilization solutions (see below examples on the details of the tested stabilization solutions).
All stabilized blood samples were set up in triplicates per condition and test time point. At time point 0 (reference), immediately after mixing the stabilization solution and blood, plasma was generated and the circulating extracellular DNA was extracted. The residual stabilized blood sample was stored for three days and six days at room temperature.
As a reference control, the EDTA stabilized blood sample (collected in K2 EDTA tubes without further additives) was also stored for 3 and 6 days. […] DMAA stabilized samples as tested herein always included additionally a caspase inhibitor. No DMAA containing stabilizing solutions without caspase inhibitor were tested in the subsequent examples.
Plasma was generated from the stabilized and unstabilized (EDTA) blood samples by inverting the blood containing tubes for four times. Then, the tubes were centrifuged for 10 minutes at 1900×g at 4° C. 2.5 ml of the plasma fraction was transferred into a fresh 15 ml falcon tube and centrifuged for 10 minutes at 16.000×g at 4° C. 2 ml of the respectively cleared plasma was used for extracellular nucleic acid isolation using the QIAamp circulating nucleic acid kit (QIAGEN) according to the manufacturer's instructions.
The isolated extracellular DNA was analyzed using two different qPCR assays, targeting different fragment lengths of the 18S ribosomal DNA:
Cycle threshholds of the individual samples were translated into amount of gDNA in the eluate, according to a gDNA standard curve. The gDNA amount of the storage time points was compared to the time zero gDNA level from the same donor and is shown as fold increase in the figures. Especially the increase of the 500 bp fragment in the plasma fraction of the blood sample after storage is an indication for a lysis/destruction of white blood cells. Thus, the lower the amount of released 500 bp DNA, the better the performance of the stabilization method.
The figures corresponding to the subsequently described examples show the increase of DNA relative to time point 0 with the different stabilization solutions (fold change) using different amplicon lengths of 18S rRNA gene. Bars indicate the mean of the triplicate samples per condition and test time point.

[5] = buffer; cited from earlier work
[6] = tested on: red blood cells; test: Hemolysis in stabilized blood samples; format: cell-based; settings: butanamide 0.5% (w/v) to 3.5% (w/v) in blood mixture
[7] = tested on: white blood cells; test: Microscopic evaluation of blood smears (cell morphology/integrity); format: cell-based; settings: EDTA blood, final 5% v/v formamide, 0.5× MOPS pH5.5, RT up to three days
[8] = tested on: white blood cells; test: Flow cytometry analysis of cell integrity; format: cell-based; settings: EDTA blood mixed with test solution (5% v/v formamide)
Method: FIG. 6: Flow cytometry (FC) analysis of peripheral blood samples of one donor of example 1. Blood was directly drawn into BD EDTA tubes and PreAnalytiX PAXgene Blood RNA Tubes (PAXgene). […] Immediately after collection and treatment of samples, blood aliquots were analysed without incubation (0 h samples), while remaining samples were incubated at RT for one and three days (24 h and 72 h samples) prior to FC analysis. Shown per picture are the size (x-axis=forward scatter) and granularity (y-axis=sideward scatter) of 10,000 events per sample aliquot tested that contain signals of cells, cell debris and particles. The different populations of white blood cells that are distinguishable from each other in FC analysis (L, M, NG) and the cell-free fraction (D) are indicated by circles for the (+) control (EDTA) sample. They are as follows:
Where indicated, cell morphology was investigated by microscopic evaluation of blood smears and cell integrity by flow cytometry (FC).
The results obtained by microscopic analysis were verified by the analysis of cell integrity with flow cytometry. […] However, not all white blood cells may be equally well stabilized during longer stabilization periods. However, intact cells were detected and the detected cell populations are important for certain diagnostic applications which aim e.g. at the analysis of lymphocytes.

[9] = biological target: T3, calpain I (Homo sapiens, UniProt P07384); settings: cited from earlier work
T3 sequence (P07384 1-714): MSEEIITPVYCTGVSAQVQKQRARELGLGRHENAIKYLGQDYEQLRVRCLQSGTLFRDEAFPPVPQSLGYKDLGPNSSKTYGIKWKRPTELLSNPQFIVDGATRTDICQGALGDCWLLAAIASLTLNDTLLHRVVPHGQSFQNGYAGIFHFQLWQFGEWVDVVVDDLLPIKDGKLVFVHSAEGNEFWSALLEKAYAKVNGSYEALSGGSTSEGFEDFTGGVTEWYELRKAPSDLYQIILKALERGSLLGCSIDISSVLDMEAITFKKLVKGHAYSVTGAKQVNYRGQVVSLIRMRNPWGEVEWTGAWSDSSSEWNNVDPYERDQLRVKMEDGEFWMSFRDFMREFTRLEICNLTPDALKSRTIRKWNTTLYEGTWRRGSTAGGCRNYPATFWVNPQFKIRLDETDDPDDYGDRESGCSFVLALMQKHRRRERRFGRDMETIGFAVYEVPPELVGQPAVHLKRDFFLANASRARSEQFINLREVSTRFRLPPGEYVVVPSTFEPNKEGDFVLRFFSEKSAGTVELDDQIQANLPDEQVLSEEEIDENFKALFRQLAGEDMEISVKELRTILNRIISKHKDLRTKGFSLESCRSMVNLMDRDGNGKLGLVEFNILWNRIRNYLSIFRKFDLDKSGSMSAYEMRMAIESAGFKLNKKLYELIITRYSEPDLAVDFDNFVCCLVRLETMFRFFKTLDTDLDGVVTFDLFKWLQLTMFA
T3 sequence (P04632 1-268 partner): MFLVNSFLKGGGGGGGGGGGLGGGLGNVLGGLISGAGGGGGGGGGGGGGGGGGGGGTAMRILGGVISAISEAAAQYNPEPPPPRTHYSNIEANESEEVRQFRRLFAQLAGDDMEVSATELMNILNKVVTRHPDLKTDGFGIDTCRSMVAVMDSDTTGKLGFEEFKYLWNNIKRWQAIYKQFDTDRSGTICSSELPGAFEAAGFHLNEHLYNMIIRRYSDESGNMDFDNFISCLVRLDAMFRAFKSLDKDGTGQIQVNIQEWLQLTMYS

[10] = biological target: T4, calpain II (Homo sapiens, UniProt P17655); settings: cited from earlier work
T4 sequence (P17655 1-700): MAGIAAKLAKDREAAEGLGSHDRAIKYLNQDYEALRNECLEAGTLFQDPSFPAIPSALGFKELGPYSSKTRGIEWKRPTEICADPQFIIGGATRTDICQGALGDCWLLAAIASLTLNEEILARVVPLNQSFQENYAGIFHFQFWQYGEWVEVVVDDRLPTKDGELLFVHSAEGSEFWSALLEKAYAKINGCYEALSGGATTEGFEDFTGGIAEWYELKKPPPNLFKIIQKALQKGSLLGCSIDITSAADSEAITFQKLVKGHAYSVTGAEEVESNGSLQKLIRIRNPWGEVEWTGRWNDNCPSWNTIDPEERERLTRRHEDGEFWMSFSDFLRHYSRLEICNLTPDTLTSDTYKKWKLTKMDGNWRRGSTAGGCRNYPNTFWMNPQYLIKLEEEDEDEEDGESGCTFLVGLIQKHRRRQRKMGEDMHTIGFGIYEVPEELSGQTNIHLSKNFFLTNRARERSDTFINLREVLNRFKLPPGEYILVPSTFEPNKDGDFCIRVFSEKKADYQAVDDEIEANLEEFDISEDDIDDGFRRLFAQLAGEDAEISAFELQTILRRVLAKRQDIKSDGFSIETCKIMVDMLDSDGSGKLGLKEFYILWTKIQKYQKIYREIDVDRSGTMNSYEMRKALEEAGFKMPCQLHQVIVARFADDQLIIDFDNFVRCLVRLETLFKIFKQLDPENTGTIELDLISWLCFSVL
T4 sequence (P04632 1-268 partner): T3 sequence (P04632 1-268 partner)

[11] = biological target: cathepsin L (Homo sapiens, UniProt P07711); settings: cited from earlier work
[12] = tested on: apoptosis; settings: cited from earlier work
[13] = amide in different concentrations with 1 μM Quinoline-Val-Asp-CH2-OPH (caspase inhibitor)
[14] = amide alone in different concentrations, without caspase inhibitor

cathepsin L, sequence (P07711 114-333, species assumed): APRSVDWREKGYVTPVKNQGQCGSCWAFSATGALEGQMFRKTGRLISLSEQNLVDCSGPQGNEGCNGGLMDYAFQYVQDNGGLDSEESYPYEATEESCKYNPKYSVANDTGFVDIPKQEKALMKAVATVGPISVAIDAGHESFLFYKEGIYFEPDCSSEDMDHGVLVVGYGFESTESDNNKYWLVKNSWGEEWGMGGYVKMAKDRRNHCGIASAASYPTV

With COC[C@@H]1CCCN1S(=O)(=O)c1ccc2c(c1)C(=O)C(=O)N2 [Caspase-3/7 Inhibitor I] as the compound, how does the Ki [1] read?
The Ki was 60 nM.

And the Ki [2]?
The Ki was 170 nM.

For CNC(C)=O [N-methylacetamide], which “stabilization of transcript levels of FOS, IL1B, IL8, TP53” value [3] is on record?
The value was “effective in stabilizing transcript levels for up to three days”.

What about the “increase in 18S rDNA in plasma (stabilization of extracellular nucleic acid population)” value (“increase in 18S rDNA in plasma” for short) [4, 13] of the same compound?
The value was “significantly reduced increase in 18S rDNA”.

With CNC=O [N-methylformamide] as the compound, how does the “increase in 18S rDNA in plasma” value [4, 13] read?
Its value is “significantly reduced increase in 18S rDNA”.

Which t1/2 [5] does the source give for N=c1sc2c(n1CC(=O)c1ccc([N+](=O)[O-])cc1)CCCC2 [Pifithrin-α, p-Nitro] here?
The t1/2 was “biological systems (t1/2 = 8h in neuron culture medium at 37° C)”.

Which “increase in 18S rDNA in plasma” value [4, 13] does the source give for CC(N)=O [acetamide] here?
Its value is “significantly reduced increase in 18S rDNA”.

With CCCC(N)=O [butanamide] as the compound, how does the “increase in 18S rDNA in plasma” value [4, 14] read?
Its value is “significantly reduced increase in 18S rDNA”.

What about the “increase in 18S rDNA in plasma” value [4, 13] of the same compound?
The value was “uniform stabilization results were obtained”.

What about the “hemolysis of the red blood cells contained in the blood sample” value [6] of the same compound?
The value was “prevents the hemolysis”.

For NC=O [formamide], which “white blood cell integrity, microscopy of blood smears” value [7] is on record?
Its value is “did not act lytic on WBC”.

And the “lysis of lymphocytes and monocytes, flow cytometry” value ([8]; RT up to three days)?
The value was “not affected by lysis”.

What about the “lysis of neutrophilic granulocytes, flow cytometry” value ([8]; longer storage at RT) of the same compound?
Its value is “Some lysis appeared to have occurred”.

What about the “increase in 18S rDNA in plasma” value [4, 14] of the same compound?
Its value is “significantly reduced increase in 18S rDNA”.

What about the “increase in 18S rDNA in plasma” value [4, 13] of the same compound?
Its value is “uniform stabilization results were obtained”.

Which “increase in 18S rDNA in plasma” value [4, 13] does the source give for CCC(N)=O [propanamide] here?
Its value is “significantly reduced increase in 18S rDNA”.

Which Ki [9] does the source give for Ac-Leu-Leu-[Nle]-aldehyde here?
The Ki was 190 nM.

And the Ki [10]?
Its Ki is 150 nM.

And the Ki [11]?
The Ki was 0.5 nM.

What does the source list for “Cbz-Leu-Leu-Tyr-CH2F [Calpain Inhibitor IV]”?
k2 calpain II ([10]; irreversible inhibitor): 28,900 M-1s-1). Also acts as an inhibitor of cathepsin L (k2 =; k2 cathepsin L [11]: 680,000 M-1s-1).

For Quinoline-Val-Asp-CH2-OPH [Q-VD-OPh], which “effectiveness in preventing apoptosis compared with Z-VAD-FMK” value [12] is on record?
The value was “even more effective”.
